# Results reported in patent publication US20220105157A1, “Compositions and Methods for Promoting Angiogenesis in the Eye” (The Regents of the University of California, priority 2019, published 2022).
# Residues, ends and D or L forms follow the SMILES beside them. *: point of attachment. Cbz = O=C(OCc1ccccc1)*; CH2F = FC*
# Columns and labels:
# [1] = test system: bovine aortic endothelial (BAE) cells; experiment: BAE endothelial cell proliferation assay (alamar blue); format: cell-based; details: for rescue of the cell death phenotype induced by LIF: BAE cells, co-incubation with inhibitor; for reversal of LIF-induced growth inhibition in BAE cells: pre-incubation with inhibitor 1 hour, LIF 10 ng/ml, 6 days
# Protocol: (§1) The bovine endothelial proliferation assays were performed essentially as previously described (63, 64). BCE (1×10^3 cells/well) or BRE (5×10^2 cells/well) cells were seeded in 96-well plates in the culture medium (DMEM-low glucose supplemented with 10% BCS, 2 mM glutamine and antibiotics) plus testing materials with a total volume of 200 μl per well. BAE cells were plated in 96-well plates at a density of 2×10^3 cells in the culture medium (DMEM-low glucose supplemented with 1% BCS and antibiotics) plus testing material with a total volume of 200 μl per well. HRME cells were seeded at a density of 1×10^3 cells/well in gelatin-coated 96-well plates in assay medium (DMEM-low glucose supplemented with 20% FBS and antibiotics) plus testing materials to make a total volume 200 μl per well. For assays involving antibodies or small-molecule inhibitors, inhibitors or vehicle controls were first added and then test materials were added one hour later. After 6 days (unless otherwise specified), cells were incubated with alamar blue for 4 h. Fluorescence was measured at 530 nm excitation wavelength and 590 nm emission wavelength. Each experiment was carried out in duplicate/triplicate and repeated at least three times.
# [2] = test system: bovine choroidal endothelial (BCE) cells; experiment: BCE endothelial cell proliferation assay (alamar blue); format: cell-based; set-up: key to BCE cell growth normalized to the vehicle control group: ns, not statistically significant; details: for effect on LIF-induced BCE cell growth: pre-incubation with inhibitor 1 hour, LIF 10 ng/ml, 6 days; for BCE cell growth normalized to the vehicle control group: day 6, n = 3
# Protocol: as §1
# [3] = test system: phosphorylation of STAT3, ERK and AKT in BCE cells; experiment: Western blotting of LIF signaling in BCE cells; format: cell-based, bovine; details: pre-incubation 1 hour (baricitinib 2 μM, cobimetinib 150 nM, BEZ235 5 nM); for effect on AKT phosphorylation: with or without LIF 10 ng/ml 15 minutes
# Protocol: (§2) BCE and BAE cells were cultured in growth medium overnight. Growth medium was removed and then cells were washed twice with PBS. Recombinant human LIF was added to cells for 15 minutes, following 3-hour incubation in the following medium: DMEM-low glucose supplemented with 10% BCS, 2 mM glutamine and antibiotics for BCE cells, and DMEM-low glucose supplemented with 1% BCS and antibiotics for BAE cells. […] Cells were then lysed with RIPA lysis buffer (Life Technologies, CAT #89901) plus protease and phosphatase inhibitor cocktail (ThermoFisher Scientific CAT #78440). Protein concentrations in cell lysates were measured with the BCA assay (ThermoFisher Scientific CAT #23227). Equal amount of proteins were subjected to electrophoresis in NuPAGE 4-12% Bis-Tris gels (ThermoFisher Scientific, CAT #NW04125BOX) and then transferred onto PVDF membranes. Membranes were blocked with 5% non-fat milk in TBST at room temperature for 1 hour, incubated with primary antibodies indicated below in TBST containing 0.5% non-fat milk at 4° C. overnight then with secondary HRP-conjugated antibodies (1:2000, GE Healthcare) at room temperature for 1 h. Signals were developed with SuperSignal™ West Pico PLUS Chemiluminescent Substrate (ThermoFisher Scientific). Primary antibodies used: anti-phospho-STAT3 (Cell Signaling, CAT #9131, 1:3000), anti-STAT3 (Cell Signaling, CAT #4904, 1:3000), anti-phospho-ERK (Cell Signaling, CAT #4376, 1:5000), anti-ERK (Cell Signaling, CAT #4695, 1:5000), anti-phospho-AKT Ser473 (Cell Signaling, CAT #4060, 1:2000), anti-AKT (Cell Signaling, CAT #4691, 1:2000) and HRP-conjugated anti-beta-actin (Sigma, CAT #AC-15, 1; 10000).
# [4] = test system: phosphorylation of STAT3, ERK and AKT in BAE cells; experiment: Western blotting of LIF signaling in BAE cells; format: cell-based, bovine; details: pretreatment 1 hour (baricitinib 2 μM, cobimetinib 150 nM, BEZ235 5 nM), LIF 10 ng/ml 15 minutes
# Protocol: as §2
# [5] = test system: retinal vasculature of mouse eyes; experiment: Intravitreal injection of recombinant proteins in mouse eyes, retinal vessel density; format: in vivo; details: after exposure to 95° C. for 2 hours
# Protocol: Male C57BL/6J mice (6-8 week and P5) were anesthetized with ketamine/Xylazine cocktail. The indicated amounts of recombinant LIF (Sigma, CAT #SRP9001) in 1 μl of PBS and PBS vehicle control were injected intravitreally with a 33-gauge Hamilton syringe. Seven (for adult mice) or 3 (for neonatal mice) days after injection, animals were euthanized, eyes were then enucleated and fixed in 4% paraformaldehyde (PFA) for 15 min. Choroid-sclera complexes and retinas were separated and anti-CD31 immunofluorescence (IF) or lectin labeling was performed to evidence the vasculature by whole mount staining of both retina and choroidal tissues or flat-mounts of retina. For CD31 IF, rat anti-mouse antibody (BD Biosciences, CAT #550274) was diluted 1:100 and incubated overnight at 4° C. After 4-hour incubation with the Alexa Fluor-488-conjugated anti-rat antibody (Life Technologies, CAT #A11006), whole mounts were imaged via the 488 nm channel using Keyence Microscope BZ-X710 (Keyence Corporation, Osaka, Japan) or A1R Confocal STORM super-resolution system (Nikon). For lectin staining, Dylight-488-labeled lectin (Vector Laboratories, CAT #DL-1174) was diluted at 1:200 and images were obtained using A1R Confocal STORM super-resolution system (Nikon). For Quantification of vascular density in choroids and retina was carried out by Image J. Student's t test was used for statistical analysis. Each experiment was repeated three times with similar results each time, and each treatment group consists of 4 or 5 individual samples in every experiment. All animal experimental procedures were approved by the Institutional Animal Care and Use Committee (IACUC) of the University of California San Diego and conducted in accordance with the guidelines of the Animal Care Program (ACP).
# Optical coherence tomography angiography (OCTA) imaging of the retina of adult mice was performed 7 days after LIF injection, using a 1300 nm optical coherence tomography (OCT) system developed by Dr. R. K. Wang's group at University of Washington Seattle, in agreement with previously described methodology (66). Briefly, the swept laser operated in single longitude mode with a 90 nm bandwidth centered at 1300 nm and 200 kHz A-line rate was used to scan mouse retina and to generate images of vasculature in a field of view of 1.5×1.5 mm^2. 2500 B-frames were captured at 500 cross-sections with five repeated B-frames at each cross-section. To quantify the retinal vascular density, retinal and choroidal layers in 3D structure OCT scans were separated by the hyper-reflecting retinal pigment epithelium (RPE). Then the en face maximum intensity projection was generated. The vessel density was then determined by calculating the percentages of vessel-covered area in total area of view using the ImageJ software.
compound,measurement,setting,value
"Cl.Nc1cccc2c(=O)[nH]ccc12 [5-AIQ, 5-AIQ hydrochloride]",rescue of the cell death phenotype induced by LIF,[1],not able rescue
"Cn1c(=O)n(-c2ccc(C(C)(C)C#N)cc2)c2c3cc(-c4cnc5ccccc5c4)ccc3ncc21 [BEZ235, reference compound]",effect on LIF-induced BCE cell growth,[2],no effect
same,effect on AKT phosphorylation,[3],only moderate effects
same,effect on LIF-induced phosphorylation of AKT,[4],effectively repressed
"CCCNC(=O)[C@H]1O[C@@H]1C(=O)N[C@H](C(=O)N1CCC[C@H]1C(=O)O)[C@@H](C)CC [CA074, CA-074]",suppression of LIF-induced effects in BAE cells,"[1]; even at the highest dose tested, 50 μM",not able to suppress
"CCCNC(=O)[C@H]1O[C@@H]1C(=O)N[C@H](C(=O)N1CCC[C@H]1C(=O)OC)[C@@H](C)CC [CA074me, CA-074 me]",reversal of LIF-induced growth inhibition in BAE cells,[1],alleviated LIF-induced growth inhibition
O=C(NCc1ccccc1)[C@H](Cc1ccccc1)NC(=O)[C@@H]1O[C@@H]1C(=O)NCCc1ccc(O)cc1 [CAA0225],reversal of LIF-induced growth inhibition in BAE cells,[1],repressed LIF-induced growth inhibition in BAE cells although by less extent
"COC(=O)C[C@H](NC(=O)[C@@H](NC(=O)c1ccc2ccccc2n1)C(C)C)C(=O)COc1c(F)cccc1F [Q-VD-OPH, Q-VD(OMe)-OPh]",rescue of the cell death phenotype induced by LIF,[1],not able rescue
"COC(=O)CC[C@H](NC(=O)[C@H](CC(=O)OC)NC(=O)OCc1ccccc1)C(=O)N[C@H](C(=O)N[C@@H](CC(=O)OC)C(=O)CF)C(C)C [Z-DEVD-fmk, Z-DEVD-FMK]",rescue of the cell death phenotype induced by LIF,[1],not able rescue
"COC(=O)C[C@H](NC(=O)[C@H](C)NC(=O)[C@@H](NC(=O)OCc1ccccc1)C(C)C)C(=O)CF [Z-VAD-fmk, Z-VAD-FMK] (Cbz-Val-Ala-Asp(OMe)-CH2F)",rescue of the cell death phenotype induced by LIF,[1],not able rescue
O=C(c1ccc(F)c(F)c1Nc1ccc(I)cc1F)N1CC(O)([C@@H]2CCCCN2)C1 [cobimetinib],effect on LIF-induced BCE cell growth,[2],minimal effects
same,effect on LIF-induced phosphorylation of ERK MAPK,[3]; then LIF 10 ng/ml 15 minutes,blocked
same,effect on LIF-induced phosphorylation of STAT3,[3]; then LIF 10 ng/ml 15 minutes,no effects
same,effect on AKT phosphorylation,[3],no effects
same,effect on LIF-induced phosphorylation of ERK,[4],effectively repressed
"IGFBP3: recombinant IGFBP3, a secreted protein previously shown to be an angiogenesis inhibitor",BAE cell growth,[1],had no effects
IL-8: recombinant human IL-8,stimulation of BCE cell growth (mitogenic activity),[2],fail to stimulate BCE cell growth
same,BCE cell growth normalized to the vehicle control group,[2]; 1 ng/ml,ns
same,BCE cell growth normalized to the vehicle control group,[2]; 3 ng/ml,ns
same,BCE cell growth normalized to the vehicle control group,[2]; 10 ng/ml,ns
same,BCE cell growth normalized to the vehicle control group,[2]; 30 ng/ml,ns
same,BCE cell growth normalized to the vehicle control group,[2]; 100 ng/ml,ns
same,BCE cell growth normalized to the vehicle control group,[2]; 300 ng/ml,ns
PDGF-AA: recombinant human PDGF-AA,stimulation of BCE cell growth (mitogenic activity),[2],fail to stimulate BCE cell growth
same,BCE cell growth normalized to the vehicle control group,[2]; 1 ng/ml,ns
same,BCE cell growth normalized to the vehicle control group,[2]; 3 ng/ml,ns
same,BCE cell growth normalized to the vehicle control group,[2]; 10 ng/ml,ns
same,BCE cell growth normalized to the vehicle control group,[2]; 30 ng/ml,ns
same,BCE cell growth normalized to the vehicle control group,[2]; 100 ng/ml,ns
same,BCE cell growth normalized to the vehicle control group,[2]; 300 ng/ml,ns
heat-inactivated LIF: recombinant LIF heat-inactivated by exposure to 95° C. for 2 hours,ability to promote mitogenesis in vitro,[2]; after exposure to 95° C. for 2 hours,abolished
same,ability to promote angiogenesis in vivo,[5],abolished
